Values quoted from earlier work in US20090092650A1, “Sustained Delivery Formulations of Octreotide Compounds” (priority 2004, published 2009).

Conditions: Marbach et al. 1992

In the case of C[C@@H](O)[C@@H]1NC(=O)[C@H](CCCCN)NC(=O)[C@@H](Cc2c[nH]c3ccccc23)NC(=O)[C@H](Cc2ccccc2)NC(=O)[C@@H](NC(=O)[C@H](N)Cc2ccccc2)CSSC[C@@H](C(=O)N[C@H](CO)[C@@H](C)O)NC1=O [octreotide], the Therapeutic plasma level is given as 0.3 ng/mL.
